# Measurements as given in ChEMBL document CHEMBL4813944 (Eur J Med Chem, 2021).
# Calls of active or inactive are those of the source. The rule behind the calls is not given here.
# Tests used:
# [1] = Cytotoxicity against human SH-SY5Y cells assessed as cell viability at 0.1 uM measured after 24 hrs by calcein-AM staining based fluorescence analysis; settings: read-out: Activity
# [2] = Cytotoxicity against human SH-SY5Y cells assessed as cell viability at 1 uM measured after 24 hrs by calcein-AM staining based fluorescence analysis; settings: read-out: Activity
# [3] = Cytotoxicity against human SH-SY5Y cells assessed as cell viability at 10 uM measured after 24 hrs by calcein-AM staining based fluorescence analysis; settings: read-out: Activity
# SH-SY5Y [4] = assay: Neuroprotective activity against salsolinol-induced neurotoxicity in human SH-SY5Y cells assessed as cell viability at 1 uM measured after 24 hrs by calcein-AM staining based fluorescence analysis (reference value: 70.49 +/-0.51%); format: functional; settings: read-out: Activity
# SH-SY5Y [5] = assay: Neuroprotective activity against salsolinol-induced neurotoxicity in human SH-SY5Y cells assessed as cell viability at 0.1 uM measured after 24 hrs by calcein-AM staining based fluorescence analysis (reference value: 70.49 +/-0.51%); format: functional; settings: read-out: Activity
# SH-SY5Y [6] = assay: Neuroprotective activity against salsolinol-induced neurotoxicity in human SH-SY5Y cells assessed as cell death at 0.1 uM measured after 24 hrs by PI staining based analysis (reference value: 100%); format: functional
# SH-SY5Y [7] = assay: Neuroprotective activity against salsolinol-induced neurotoxicity in human SH-SY5Y cells assessed as cell death at 1 uM measured after 24 hrs by PI staining based analysis (reference value: 100%); format: functional
# SH-SY5Y [8] = assay: Inhibition of Salsolinol-induced oxidative stress in human SH-SY5Y cells assessed as superoxide radical formation at 1 uM measured after 24 hrs by DHE staining based fluorescence spectrophotometry (reference value: 100%); format: functional; design: scale not given: the % may be the effect or the level left
# SH-SY5Y [9] = assay: Inhibition of salsolinol-induced apoptosis in human SH-SY5Y cells assessed as caspase 3/7 activity at 1 uM incubated for 24 hrs using Ac-DEVD-AMC as substrate by fluorescence analysis (reference value: 100%); format: functional; design: scale not given: the % may be the effect or the level left
# SH-SY5Y [10] = assay: Inhibition of salsolinol-induced apoptosis in human SH-SY5Y cells assessed as caspase 3/7 activity at 0.1 uM incubated for 24 hrs using Ac-DEVD-AMC as substrate by fluorescence analysis (reference value: 100%); format: functional; design: scale not given: the % may be the effect or the level left
# SH-SY5Y [11] = assay: Inhibition of salsolinol-induced mitochondrial depolarization in human SH-SY5Y cells assessed as mitochondrial membrane potential at 10 uM measured after 24 hrs by JC-1 staining based flow cytometry (reference value: 45.3 +/-2.09%); format: functional
# SH-SY5Y [12] = assay: Inhibition of salsolinol-induced mitochondrial depolarization in human SH-SY5Y cells assessed as recovery of mitochondrial membrane potential at 0.1 uM measured after 24 hrs by JC-1 staining based flow cytometry; format: functional, cell-based
# [13] = Inhibition of salsolinol-induced mPTP opening in human SH-SY5Y cells assessed as fold change in fluorescence intensity at 1 uM measured after 24 hrs by calcein AM/CoCl2 based fluorescence microscopic analysis (reference value: 0.49 +/-0.02); format: functional
# SH-SY5Y [14] = assay: Inhibition of salsolinol-induced apoptosis in human SH-SY5Y cells assessed as appearance of necrotic cells at 1 uM measured after 24 hrs by AO/PIstaining based fluorescence microscopy; format: functional, cell-based
# SH-SY5Y [15] = assay: Neuroprotective activity against glutamate-induced neurotoxicity in human SH-SY5Y cells assessed as cell death at 1 uM measured after 24 hrs by PI staining based assay (reference value: 100%); format: functional
# SH-SY5Y [16] = assay: Inhibition of glutamate-induced oxidative stress in human SH-SY5Y cells assessed as superoxide radical formation at 1 uM measured after 4 hrs by DHE staining based fluorescence spectrophotometry (reference value: 100%); format: functional; design: scale not given: the % may be the effect or the level left
# SH-SY5Y [17] = assay: Inhibition of glutamate-induced apoptosis in human SH-SY5Y cells assessed as reduction in caspase 3/7 activity at 0.1 to 1 uM incubated for 1 hr using Ac-DEVD-AMC as substrate by fluorescence analysis; format: functional; settings: dose 0.1-1 µM
# SH-SY5Y [18] = assay: Inhibition of glutamate-induced mitochondrial depolarization in human SH-SY5Y cells assessed as recovery of mitochondrial membrane potential at 0.1 to 1 uM incubated for 1 hr by JC10 dye based fluorescence analysis; format: functional, cell-based; settings: dose 0.1-1 µM
# SH-SY5Y [19] = assay: Inhibition of Salsolinol-induced oxidative stress in human SH-SY5Y cells assessed as superoxide radical formation at 0.1 uM measured after 24 hrs by DHE staining based fluorescence spectrophotometry (reference value: 100%); format: functional; design: scale not given: the % may be the effect or the level left
# SH-SY5Y [20] = assay: Inhibition of Salsolinol-induced oxidative stress in human SH-SY5Y cells assessed as reduction in superoxide radical formation at 1 uM measured after 24 hrs by DHE staining based fluorescence microscopy; format: functional, cell-based
# SH-SY5Y [21] = assay: Inhibition of glutamate-induced oxidative stress in human SH-SY5Y cells assessed as superoxide radical formation at 0.1 uM measured after 4 hrs by DHE staining based fluorescence spectrophotometry (reference value: 100%); format: functional; design: scale not given: the % may be the effect or the level left
# SH-SY5Y [22] = assay: Inhibition of glutamate-induced oxidative stress in human SH-SY5Y cells assessed as reduction in superoxide radical formation at 1 uM measured after 4 hrs by DHE staining based fluorescence microscopy; format: functional, cell-based
# SH-SY5Y [23] = assay: Inhibition of salsolinol-induced apoptosis in human SH-SY5Y cells assessed as caspase 3/7 activity at 0.5 uM incubated for 24 hrs using Ac-DEVD-AMC as substrate by fluorescence analysis (reference value: 100%); format: functional; design: scale not given: the % may be the effect or the level left
# SH-SY5Y [24] = assay: Inhibition of salsolinol-induced apoptosis in human SH-SY5Y cells assessed as caspase 3/7 activity at 0.05 uM incubated for 24 hrs using Ac-DEVD-AMC as substrate by fluorescence analysis (reference value: 100%); format: functional; design: scale not given: the % may be the effect or the level left
# SH-SY5Y [25] = assay: Inhibition of glutamate-induced apoptosis in human SH-SY5Y cells assessed as caspase 3/7 activity at 0.05 uM incubated for 1 hr using Ac-DEVD-AMC as substrate by fluorescence analysis (reference value: 100%); format: functional; design: scale not given: the % may be the effect or the level left
# SH-SY5Y [26] = assay: Inhibition of glutamate-induced apoptosis in human SH-SY5Y cells assessed as caspase 3/7 activity at 0.5 uM incubated for 1 hr using Ac-DEVD-AMC as substrate by fluorescence analysis (reference value: 100%); format: functional; design: scale not given: the % may be the effect or the level left
smiles,measurement,setting,value
C=C(C(=O)OCc1c[nH]nn1)[C@@H]1CC[C@]2(COC(C)=O)CC[C@]3(C)[C@H](CC[C@@H]4[C@@]5(C)CC[C@H](OC(C)=O)C(C)(C)[C@@H]5CC[C@]43C)[C@@H]12,"viability at 24 h, 0.1 µM",[1],97.4%
same,"viability at 24 h, 1 µM",[2],119%
same,"viability at 24 h, 10 µM",[3],30.5%
same,viability at 1 µM,SH-SY5Y [4],97.9%
same,viability at 0.1 µM,SH-SY5Y [5],81.4%
same,Activity,SH-SY5Y [6],62.3%
same,Activity,SH-SY5Y [7],59.3%
same,Activity,SH-SY5Y [8],81%
same,Activity,SH-SY5Y [9],24.3%
same,Activity,SH-SY5Y [10],42.2%
same,Activity,SH-SY5Y [11],inactive
same,Activity,SH-SY5Y [12],Active
same,fold change (FC),[13],1.14
same,Activity,SH-SY5Y [14],Active
same,Activity,SH-SY5Y [15],85%
same,Activity,SH-SY5Y [16],72.2%
same,inhibition (INH),SH-SY5Y [17],6%
same,Activity,SH-SY5Y [18],inactive
same,Activity,SH-SY5Y [19],83.7%
same,inhibition,SH-SY5Y [20],Active
same,Activity,SH-SY5Y [21],75.7%
same,inhibition,SH-SY5Y [22],Active
CC(=O)N[C@@H](CC(=O)O)C(=O)N[C@@H](CCC(=O)O)C(=O)N[C@H](C(=O)N[C@@H](CC(=O)O)C(=O)O)C(C)C,Activity,SH-SY5Y [23],30.8%
same,Activity,SH-SY5Y [24],36.9%
same,Activity,SH-SY5Y [25],27.8%
same,Activity,SH-SY5Y [26],13.7%
